From the supplement of paper PMC10307832

Key:
Assay in all cases: relative viability (nuclei count vs DMSO), 5 days (fraction); higher = more cells survive
[1] = compound: CC(=O)c1c(C)c2cnc(Nc3ccc(N4CCNCC4)cn3)nc2n(C2CCCC2)c1=O [Palbociclib] + CS(=O)(=O)N1CCN(Cc2cc3nc(-c4cccc5[nH]ncc45)nc(N4CCOCC4)c3s2)CC1 [Pictilisib] (partner 1 µM)
How it was run: (§1)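 Nuclei were stained with Hoechst during a one-step fixation (final 0.05% Triton X-100, 1% formaldehyde, 1 ug/ml Hoechst) carried out 5 days after dosing, then counted on 4× images. The cells, lung cancer lines in 1536-well plates, had been dosed by pin tool the day after seeding with one drug alone or a fixed anchor-drug dose plus five library-drug doses (not always all listed) in √10 steps. Relative viability is the nuclei count in treated wells divided by that in vehicle wells, and each value is the median of duplicate plates.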

[2] = compound: CC(=O)c1c(C)c2cnc(Nc3ccc(N4CCNCC4)cn3)nc2n(C2CCCC2)c1=O [Palbociclib] + C[C@@H](Oc1cc(-c2cnn(C3CCNCC3)c2)cnc1N)c1c(Cl)ccc(F)c1Cl [Crizotinib] (partner 1 µM)
How it was run: as §1

[3] = compound: CC(=O)c1c(C)c2cnc(Nc3ccc(N4CCNCC4)cn3)nc2n(C2CCCC2)c1=O [Palbociclib] + Cc1nc(NC(=O)N2CCC[C@H]2C(N)=O)sc1-c1ccnc(C(C)(C)C(F)(F)F)c1 [Alpelisib] (partner 2 µM)
How it was run: as §1

[4] = compound: CC(=O)c1c(C)c2cnc(Nc3ccc(N4CCNCC4)cn3)nc2n(C2CCCC2)c1=O [Palbociclib] + CC(C)C[C@H](NC(=O)[C@H](Cc1ccccc1)NC(=O)c1cnccn1)B(O)O [Bortezomib] (partner 0.002 µM)
How it was run: as §1

Cell Line	relative viability ([1]; first compound 0.01 µM)	relative viability ([1]; first compound 0.03162 µM)	relative viability ([1]; first compound 0.1 µM)	relative viability ([1]; first compound 0.3162 µM)	relative viability ([1]; first compound 1 µM)	relative viability ([2]; first compound 0.01 µM)	relative viability ([2]; first compound 0.03162 µM)	relative viability ([2]; first compound 0.1 µM)	relative viability ([2]; first compound 0.3162 µM)	relative viability ([2]; first compound 1 µM)	relative viability ([3]; first compound 0.01 µM)	relative viability ([3]; first compound 0.03162 µM)	relative viability ([3]; first compound 0.1 µM)	relative viability ([3]; first compound 0.3162 µM)	relative viability ([3]; first compound 1 µM)	relative viability ([4]; first compound 0.01 µM)	relative viability ([4]; first compound 0.03162 µM)	relative viability ([4]; first compound 0.1 µM)	relative viability ([4]; first compound 0.3162 µM)	relative viability ([4]; first compound 1 µM)
NCI-H1651	0.573	0.524	0.499	0.529	0.355	0.895	0.864	0.869	0.808	0.79	1.03	0.823	0.875	0.883	0.624	1	0.9	0.981	0.915	0.8
NCI-H1666	0.477	0.386	0.345	0.297	0.277	1.09	0.895	0.632	0.552	0.621	0.976	0.765	0.792	0.611	0.443	0.924	0.787	0.709	0.599	0.429
NCI-H1703	0.225	0.211	0.242	0.252	0.21	0.845	–	0.513	0.505	0.227	0.298	0.346	0.301	0.231	0.182	0.266	0.23	0.197	0.226	0.188
NCI-H1734	0.39	0.387	0.331	0.344	0.235	0.685	0.622	0.52	0.499	0.398	0.637	0.588	0.539	0.537	0.374	0.896	0.532	0.661	0.619	0.409
NCI-H1755	0.437	0.297	0.337	0.29	0.263	0.927	0.889	0.707	0.706	0.539	0.949	0.855	0.802	0.766	0.575	0.977	0.761	0.803	0.733	0.483
NCI-H1792	0.298	0.255	0.222	0.229	0.15	0.972	0.897	0.906	0.868	0.634	0.679	0.603	0.543	0.637	0.408	0.934	0.875	0.917	0.852	0.711
NCI-H1915	0.875	0.504	0.846	0.808	0.621	0.89	0.863	0.879	0.856	0.796	1.05	1.01	0.982	0.959	0.896	1.02	0.684	0.921	0.947	0.778
NCI-H1975	0.286	0.271	0.199	0.25	0.186	0.979	0.861	0.869	0.763	0.758	0.634	0.549	0.543	0.469	0.353	0.356	0.356	0.349	0.406	0.366
NCI-H1993	0.858	0.628	0.829	0.812	0.632	0.806	0.757	0.718	0.617	0.625	0.679	0.635	0.597	0.614	0.631	1.23	0.905	0.969	0.763	0.814
NCI-H2009	0.758	0.453	0.462	0.411	0.182	1.02	0.913	0.838	0.695	0.331	1.07	1.06	0.925	0.874	0.326	0.987	0.867	0.68	0.679	0.219
NCI-H2023	0.2	0.151	0.151	0.15	0.111	0.568	0.58	0.49	0.367	0.272	0.663	0.589	0.427	0.475	0.247	0.96	0.279	0.705	0.654	0.391
NCI-H2085	0.517	0.427	0.398	0.361	0.318	0.895	0.823	0.513	0.695	0.576	1.03	0.891	0.923	0.84	0.616	0.991	0.99	0.969	0.871	0.543
NCI-H2087	0.83	0.669	0.478	0.498	0.393	0.802	0.901	0.618	0.643	0.375	1.18	0.962	0.824	0.68	0.531	0.803	0.81	0.702	0.485	0.372
NCI-H2126	0.502	0.475	0.444	0.402	0.328	1.04	1.04	0.928	0.789	0.598	0.793	0.748	0.679	0.591	0.414	1.1	0.91	0.925	0.801	0.599
NCI-H2228	0.298	0.351	0.289	0.358	0.482	0.447	0.45	0.406	0.31	0.369	0.73	0.566	0.609	0.59	0.589	1.08	0.871	0.88	0.875	0.89
NCI-H2347	0.538	0.772	0.584	0.47	0.492	0.632	0.602	0.498	0.588	0.558	1.15	0.979	0.642	0.789	0.597	1.01	–	0.929	–	0.684
NCI-H2405	0.46	–	0.294	0.415	0.313	0.829	0.649	0.698	0.703	0.586	0.792	–	0.441	0.678	0.494	0.973	0.769	0.847	1.01	0.597
NCI-H3122	0.536	0.523	0.449	0.332	0.234	0.246	0.244	0.252	0.188	0.175	0.76	0.667	0.688	0.46	0.353	1.04	1.02	0.919	0.745	0.513
PC-3 [JPC-3]	0.778	0.647	0.56	0.677	0.494	0.988	1.04	0.86	0.797	0.653	1.06	1.02	0.851	0.88	0.618	0.776	0.701	0.706	0.665	0.545
PC-14	0.764	0.653	0.579	0.537	0.254	1.01	0.84	0.799	0.739	0.594	1.02	0.936	0.782	0.762	0.671	1.02	0.863	0.751	0.655	0.57
RERF-LC-KJ	0.53	0.459	0.464	0.484	0.629	0.909	0.82	0.82	0.88	0.87	0.893	0.866	0.827	0.798	0.867	1.17	1.12	1.11	1.04	1.15
SK-LU-1	0.559	0.474	0.445	0.383	0.286	0.908	0.738	0.624	0.67	0.471	1.02	0.921	0.581	0.599	0.464	1.47	–	0.92	0.912	0.58
SW 1573	0.447	0.389	0.322	0.327	0.289	0.776	0.672	0.685	0.758	0.615	0.676	0.744	0.571	0.57	0.49	1.15	0.928	0.985	0.842	0.506
UMC-11	0.873	0.671	0.429	0.36	0.219	0.603	0.519	0.428	0.346	0.177	0.996	0.931	0.604	0.459	0.254	0.934	0.625	0.466	0.292	0.238
